# In patent US4288609A, “Quaternary ammonium derivatives of adamantane with antimicrobic activity” (priority 1976, dated 1981):
# “And” between values parts separate entries of the source, which are not always exact repeats. Equal values may be shown once. Read-outs that look alike come from different tables or passages of the source.
# Experiments:
# [1] = tested on: Trich. Foetus ISM 66/23; experiment: MIC protozoa, Trichomonas foetus (Table 2); format: cell-based; details: +10% serum (head), Kupferberg Trichomonas broth with 5% of horse serum
# Procedure, shortened: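 Test substance was added at set concentrations to Kupferberg Trichomonas broth with 5% horse serum, inoculated with T. vaginalis or T. foetus at 3.5% of medium volume. Growth was assessed after 24 or 48 h incubation at 30° or 37 °C. MIC is the minimum concentration inhibiting growth.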
# [2] = tested on: Staphylococcus Aureus Tour; experiment: Speed of sterilising action, Staphylococcus Aureus (Table 3); format: cell-based
# Protocol: (§1) The strains, inoculants, culture broths and experimental methods are as already seen for calculating the M.I.C. in vitro. The antimicrobic substances were tested at concentrations of 0.1, 0.25, 0.5 and 1 g/l, the contact times taken into consideration are 0, 1, 2.5, 5, 7.5, 10, 15, 30 and 60 minutes.
# (§2) The samples which at the 7th day of incubation still had no growth of micro-organisms which could be observed macroscopically and/or microscopically were considered sterile.
# (§3) The results are recorded in Table 3 in terms of sterilization time expressed in minutes.
# [3] = tested on: Candida Pseudotrop. ATCC 2512; experiment: MIC yeasts, Candida pseudotropicalis (Table 2); format: cell-based; details: Sabourand broth
# Procedure, shortened: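 Candida inoculum (10^3 cells/ml, from 24 h cultures at 30° C) in Sabouraud broth containing graded compound concentrations.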
# [4] = Acute oral toxicity in mice (Table 4); details: mouse, in vivo, po, LD50, oral, mice, 14 days
# Protocol: The substances were administered orally to groups of 10 female mice CF1 of average weight of about 20 grams, in aqueous solution and in such way that the total volume administered would be in each case 1 ml/100 g of weight.
# [5] = tested on: Trichophyton Mentagrophytes Ist. Pasteur; experiment: Speed of sterilising action, Trichophyton Mentagrophytes (Table 3); format: cell-based
# Protocol: as §1, §2, §3
# [6] = tested on: Trichomonas Vaginalis ISM 66/22; experiment: Speed of sterilising action, Trichomonas Vaginalis (Table 3); format: cell-based
# Protocol: as §1, §2, §3
# [7] = tested on: Trichophyton Mentagrophytes; experiment: Topical activity upon dermatophytis from Trichophyton in cavies (Table 6); format: in vivo, Albino cavies; details: for evaluation of seriousness of infection (A.D.I.): average index
# Protocol: Albino cavies of 250-300 g are infected, after depilation and scarification of a circular area of dorsal skin upon which there are supplied 0.1 ml of a suspension of microconidia of Trichophyton Mentagrophytes from the Pasteur Institute collection, obtained from a culture of 15 days upon Saboureaud agar. 24 Hours after infection topical treatment is started and is continued for two weeks (once per day).
# The compounds to be tested are dissolved or suspended at the desired concentration, in a water-alcohol mixture (75/25 v/v) containing 0.75% by weight of carboxymethyl-cellulose (CMC). […] Each single application is carried out using 0.25 ml of the suspension or solution obtained as described above.
# Fourteen days after infection the lesions are assessed. Assessment is carried out by attributing index numbers depending upon the seriousness of the lesions formed, as follows:
# The substances under examination were tested at concentrations of 5 and 2.5% by weight.
# [8] = tested on: Candida albicans; experiment: Activity upon vaginal candidiasis in mice (Table 7); format: in vivo, female Swiss mice (Charles River CD1); details: for proliferation index (individual): eighth day
# Protocol: The treatment groups consist each of 8 female Swiss mice (Charles River CD1) of average weight 20 g. The animals are infected with 0.025 ml of a 24 hour culture of Candida albicans, equal to 10^6 cellules.
# 0.025 ml of a suspension in lanoline of the compound to be tested, at the desired concentration, are applied locally twice a day for a week, the first treatment being started five hours after infection.
# The control group is treated with the lanoline alone in the same way. On the eighth day vaginal washings are carried out with 0.025 ml of sterile physiological solution, and the liquid is sown in Petri dishes containing Bacto Biggy Agon Difco as a selective growing medium for the Candida.
# After 48 hours of incubation of the dishes at 30° C. a count is taken of the colonies which have grown. Assessment of the activity is quantized using the indices listed here below:
# The results are expressed as percentages of the average index of seriousness of the infection A.D.I. (Average Degree of Infection) in the animals treated with respect to the animals in the control group.
# The substances under examination were tested at concentrations of 5 and 3% by weight.
# [9] = Tritrichomonas foetus, read-out: MIC
# [10] = Candida, ATCC2512, +10% serum, read-out: MIC
# [11] = Candida, ATCC2512, without serum, read-out: MIC
Structure (SMILES),"MIC [1, 9] [µg/mL]",sterilization time ([2]; 0.1 g/l) [min],sterilization time ([2]; 0.25 g/l) [min],sterilization time ([2]; 0.5 g/l) [min],sterilization time ([2]; 1 g/l) [min],"MIC [3, 10] [µg/mL]","MIC [3, 11] [µg/mL]",LD50 at 336 h [4] [mg/kg],sterilization time ([5]; 0.1 g/l) [min],sterilization time ([5]; 0.25 g/l) [min],sterilization time ([5]; 0.5 g/l) [min],sterilization time ([5]; 1 g/l) [min],in vivo activity against Trichophyton Mentagrophytes (in words) [7],% of healing (100-A.D.I. %) ([8]; 3% by weight) [%],A.D.I. (compared with controls) ([8]; 3% by weight) [%],average proliferation index (A.D.I) ([8]; 3% by weight),% of healing (100-A.D.I. %) ([8]; 5% by weight) [%],A.D.I. (compared with controls) ([8]; 5% by weight) [%],average proliferation index (A.D.I) ([8]; 5% by weight),"topical in vivo activity against Candida albicans (in words) ([8]; mouse, in vivo)",further results
CCCCCCCCCCCC[N+](C)(C)CCOC(=O)C12CC3CC(CC(C3)C1)C2 [Example 4],5,7.5,5,1,1,50,0.1,820,60,60,15,5,"excellent ""in vivo"" activity against Trichophyton Mentagrophytes",57.98,42.02,1.00,84.03,15.97,0.38,"excellent topical activity ""in vivo"" even against Candida albicans","sterilization time ([6]; 0.1 g/l): 2.5 min; sterilization time ([6]; 0.25 g/l): 1 min; sterilization time ([6]; 0.5 g/l): 1 min; sterilization time ([6]; 1 g/l): 1 min; no. of animals surviving ([8]; 3% by weight, 8 animals): 8; proliferation index (individual) ([8]; 3% by weight): 2-0-1-1-1-1--0-2; no. of animals surviving ([8]; 5% by weight, 8 animals): 8; tolerance by vaginal mucous membrane ([8]; mice, local): perfectly tolerated by very delicate tissues"
"CCCCCCCCCC[N+](C)(C)CCOC(=O)C12CC3CC(CC(C3)C1)C2 (single isomer, unassigned) [Example 1, n-Decyl-dimethyl-(1-adamantane-carboxy)-ethyl-ammonium bromide]",,7.5,2.5,1,1,,,910,60,30,15,5,"excellent ""in vivo"" activity against Trichophyton Mentagrophytes",63.03,36.97,0.88,84.03,15.97,0.38,"excellent topical activity ""in vivo"" even against Candida albicans","MIC [1]: 2 µg/mL; MIC ([3]; +10% serum): 20 µg/mL; MIC ([3]; without serum): < 0.1 µg/mL; sterilization time ([6]; 0.1 g/l): 2.5 min; sterilization time ([6]; 0.25 g/l): 1 min; sterilization time ([6]; 0.5 g/l): 1 min; sterilization time ([6]; 1 g/l): 1 min; A.D.I. (% of control group) ([7]; 2.5% by weight): 31.09%; healing % (100-A.D.I. %) ([7]; 2.5% by weight): 68.91%; evaluation of seriousness of infection (A.D.I.) ([7]; 2.5% by weight): 0.83; A.D.I. (% of control group) ([7]; 5% by weight): 12.36%; healing % (100-A.D.I. %) ([7]; 5% by weight): 87.64% and ~90%; evaluation of seriousness of infection (A.D.I.) ([7]; 5% by weight): 0.33; no. of animals surviving ([8]; mouse, in vivo): 8; tolerance by vaginal mucous membrane ([8]; mouse, in vivo): perfectly tolerated by very delicate tissues"
CCCCCCCCCCCC[N+](C)(C)CCNC(=O)C12CC3CC(CC(C3)C1)C2 [Example 8],1,,,,,20,< 0.1,760,60,60,10,5,"excellent ""in vivo"" activity against Trichophyton Mentagrophytes",63.03,36.97,0.88,78.99,21.01,0.50,"excellent topical activity ""in vivo"" even against Candida albicans","proliferation index (individual) ([8]; 3% by weight): 0-1-1-3-0-0-0-2; no. of animals surviving ([8]; 5% by weight, 8 animals): 2; proliferation index (individual) ([8]; 5% by weight): 0-0-0-2-1-0-0-1; tolerance by vaginal mucous membrane ([8]; mice, local): perfectly tolerated by very delicate tissues"
